Measured values taken from paper PMC10180054, “Design, Synthesis and Biological Evaluation of Novel Pleuromutilin Derivatives Containing 6-Chloro-1-R-1H-pyrazolo[3,4-d]pyrimidine-4-amino Side Chain” (Molecules, 2023).
≈ marks a conversion by molar mass, not a printed value. Entries after “also recorded” stand apart in the source; their conditions may differ. Where two headings read alike, the source gives them in different places.

Assays:
[1] = tested on: MRSA ATCC 43300; assay: MIC/MBC by broth dilution (CLSI); assay type: cell-based, Staphylococcus aureus; settings: for MIC: MRSA ATCC 43300, broth dilution, 24 h, 37 °C
In short: (§1)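 CLSI broth dilution used twofold compound series from 64 to 0.0625 µg/mL (stocks in water with 2.5% DMSO and 2.5% Tween-80) and a final inoculum of 5 × 10^5 CFU/mL, in triplicate. For MBC, 25 µL from wells without visible growth was plated on MH agar and cultured 24 h at 37 °C.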

[2] = tested on: S. aureus 144; assay: MIC/MBC by broth dilution (CLSI); assay type: cell-based; settings: Staphylococcus aureus; S. aureus 144 (clinical strain)
In short: as §1

[3] = tested on: S. aureus AD3; assay: MIC/MBC by broth dilution (CLSI); assay type: cell-based; settings: Staphylococcus aureus; S. aureus AD3 (clinical strain)
In short: as §1

[4] = tested on: S. aureus ATCC 29213; assay: MIC/MBC by broth dilution (CLSI); assay type: cell-based; settings: Staphylococcus aureus, ATCC29213
In short: as §1

[5] = tested on: MRSA ATCC 43300; assay: Constant concentration time–kill curves; assay type: cell-based, Staphylococcus aureus
Procedure: Time–kill kinetic assays were performed, which were used to investigate the in vitro bactericidal kinetic effect of compounds 12c, 19c, 22c and tiamulin.
Time–kill curve assays were established with the MIC value to investigate the antibacterial effect of constant drug concentration on MRSA. […] MRSA ATCC 43300 was incubated in MH broth at 37 °C for 4.5 h and diluted to 1 × 10^6 CFU/mL in MH broth. The saline control group was subjected to the same schedule but 0.9% saline water was added instead of the test compound. All the samples were incubated in an oscillating thermostatic at 37 °C, and then 100 μL of the mixture was extracted to 900 μL of sterile saline (0.9%) at 0, 3, 6, 9, 12 and 24 h, respectively. Samples were serially diluted 10-fold in sterile saline (0.9%) and inoculated onto agar plates. The colonies were counted after incubation at 37 °C for 24 h. Three independent experiments were performed according to our previous work. Time–kill curves were constructed by plotting the log10 CFU per millilitre versus time, and the change in bacterial concentration was determined.

[6] = tested on: RAW 264.7 cells; assay: Cytotoxicity MTT assay; assay type: cell-based, mouse; settings: 16 h
Procedure: (§2) The presence of compounds can influence cellular basic physiological processes, suppress proliferation and even reduce cell survival, etc. In the community, MRSA generally causes respiratory infection. Therefore, cytotoxicity was evaluated to explore the effect of compounds 12c and 22c on the viability of the respiratory tract cells 16-HBE (human bronchial epithelial cell line). RAW 264.7 (mouse peritoneal macrophage cell line) and Caco-2 (human epithelial colorectal adenocarcinoma cell line) were also used to evaluate the cytotoxicity of compounds 12c and 22c by MTT assay.
Cytotoxicity of the test compounds was assessed using the conventional MTT method. RAW 264.7 murine macrophage cells, Caco-2 cells and 16-HBE were used in this experiment. The cells were seeded into 96-well plates at a density of 1.0 × 10^5 cells per well. After 4 h at 37 °C, the cells were treated with compounds 12c and 22c at various concentrations and incubated at 37 °C for 16 h. Next, MTT (0.5 mg/mL in PBS, 100 μL/well) was added sequentially to each well in a humidified atmosphere of 95% air and 5% CO2 incubator and the incubation continued for an additional four hours. […] At the end of this period, the absorbance was measured at 490 nm by a microplate spectrophotometer (BIO-TEK Instruments, Winooski, VT, USA).

[7] = tested on: 16-HBE cells; assay: Cytotoxicity MTT assay; assay type: cell-based, human; settings: 1~8 μg/mL, 16 h
Procedure: as §2
(§3) Cytotoxicity of the test compounds was assessed using the conventional MTT method. RAW 264.7 murine macrophage cells, Caco-2 cells and 16-HBE were used in this experiment. The cells were seeded into 96-well plates at a density of 1.0 × 10^5 cells per well. After 4 h at 37 °C, the cells were treated with compounds 12c and 22c at various concentrations and incubated at 37 °C for 16 h. Next, MTT (0.5 mg/mL in PBS, 100 μL/well) was added sequentially to each well in a humidified atmosphere of 95% air and 5% CO2 incubator and the incubation continued for an additional four hours. After incubation, the medium was peeled off and DMSO (150 μL/well) was added to dissolve the cells, and then the incubation was continued for 30 min. At the end of this period, the absorbance was measured at 490 nm by a microplate spectrophotometer (BIO-TEK Instruments, Winooski, VT, USA).

[8] = tested on: Caco-2 cells; assay: Cytotoxicity MTT assay; assay type: cell-based, human; settings: 1~8 μg/mL, 16 h
Procedure: as §2, §3

[9] = tested on: MRSA ATCC 43300; assay: Neutropenic murine thigh infection model; assay type: in vivo; settings: neutropenic mice, 20 mg/kg, 24 h after dosing, n = 6/group
Procedure: Therefore, the in vivo efficacy of compounds 12c and 22c were assessed using the murine neutropenic thigh infection model. Mice groups treated with saline and tiamulin were chosen as the negative and positive controls.
Model experiments of neutropenic mouse thigh infection were manipulated as described in the literature. Female, six-week-old, specific-pathogen-free mice weighing approximately 23~26 g were used throughout the study. Mice were rendered neutropenic by injection of cyclophosphamide (Mead Johnson Pharmaceuticals, Evansville, IN) on day 4 (150 mg/kg) and day 1 (100 mg/kg) before the experiment. The neutrophil numbers in mice blood should be <0.1 × 10^9/L [34]. In total, 0.1 mL of MH broth of MRSA (10^7 CFU/mL) was inoculated into each thigh of the neutropenic mice. Mice were divided into 4 groups (6 mice per group), including control (sterile saline), compounds 12c, 22c and tiamulin groups. After 3 h post-infection, the corresponding drugs were injected into each mouse’s thigh. Mice were euthanized following intravenous injection for 24 h. Thigh tissue of each mouse was removed, collected, weighed and homogenized in 3 mL of ice sterile saline. Six ten-fold serial dilutions were performed and 25 μL of the bacterial solution from each tube was plated on MH agar plates. The resulting colonies were counted after 24 h incubation at 37 °C. The protocol for this study was reviewed and approved by the Institutional Animal Care and Use Committee of the South China Agricultural University.

MIC [1]: 0.25/0.25 μg/mL
MIC ([1]; Staphylococcus aureus, read-out: MIC): 0.25 µg/mL (≈ 0.333 µM)
MBC/MIC ratio ([1]; against MRSA): ≤ 2
MIC [2]: 0.5 µg/mL (≈ 0.666 µM)
MIC [3]: 0.125 µg/mL (≈ 0.167 µM)
MIC ([4]; S. aureus ATCC 29213, broth dilution, 24 h, 37 °C): 0.25 µg/mL (≈ 0.333 µM)
melting point: 109 to 113 °C
SMILES: C=C[C@]1(C)C[C@@H](OC(=O)CSc2ccc(Nc3nc(Cl)nc4c3cnn4-c3ccc(F)c(F)c3)cc2)[C@]2(C)[C@H](C)CC[C@]3(CCC(=O)[C@H]32)[C@@H](C)[C@@H]1O [Compound 22c, 22-[4-(6-Chloro-1-(3,4-difluorophenyl)-1H-pyrazolo[3,4-d]pyrimidine-4-yl)amino-Phenylsulfanyl]-22-deoxypleuromutilin]
MBC ([1]; Staphylococcus aureus, MRSA ATCC 43300, 99.9% of the bacteria killed): 0.25 µg/mL (≈ 0.333 µM)
MBC [2]: 1 µg/mL (≈ 1.33 µM)
MBC [3]: 0.25 µg/mL (≈ 0.333 µM)
MBC ([4]; S. aureus ATCC 29213): 0.5 µg/mL (≈ 0.666 µM)
MRSA killed in time–kill assay ([5]; 2 × MIC, 24 h incubation): 99.99%
reduction of MRSA in time–kill assay ([5]; 2 × MIC, 24 h incubation): −4.47 log10 CFU/mL
reduction of MRSA in time–kill assay ([5]; 4 × MIC): −5.79 log10 CFU/mL
type of bactericidal kinetics ([5]; time–kill curves, 1 to 32 × MIC): time-dependent
effect on viability of RAW 264.7 cells ([6]; 8 µg/mL): slight inhibition
effect on viability of RAW 264.7 cells ([6]; ≤8 μg/mL): no significant inhibition
effect on viability of 16-HBE cells [7]: no significant inhibition; also recorded: did not affect the viability
effect on viability of Caco-2 cells [8]: no significant inhibition; also recorded: did not affect the viability
reduction of MRSA load in thigh vs growth control [9]: −0.93 log10 CFU/mL
